# Reference: PubChem BioAssay AID1963848 (Molecular Pharmacology Branch, DTP, NCI, 2024)
# pIC50: −log10 of the molar value.
# Test system: 379773-124-R-J2-PDC spheroid viability
# Test: Anticancer human tumor 379773-124-R-J2-PDC patient-derived endometrial carcinoma cell line growth inhibition [POLQ]
# Details: spheroids with HUVEC and MSC; for pIC50: curve of first compound; for viability, T/C: stronger effect = lower value
# Method in brief: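 PDC + HUVEC + MSC complex spheroids; POLQ inhibitors ± partner drugs; top conc. at/near clinical Cmax, else 10 microM (SN-38 1 microM), half-log dilutions; 37 degrees C, 5% CO2.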
# [1] = second compound 0.0316 µM, first compound 0.0316 µM
# [2] = second compound 0.0316 µM, first compound 0.1 µM
# [3] = second compound 0.0316 µM, first compound 0.316 µM
# [4] = second compound 0.0316 µM, first compound 1 µM
# [5] = second compound 0.0316 µM, first compound 3.16 µM
# [6] = second compound 0.0316 µM, first compound 10 µM
# [7] = second compound 0.1 µM, first compound 0.0316 µM
# [8] = second compound 0.1 µM, first compound 0.1 µM
# [9] = second compound 0.1 µM, first compound 0.316 µM
# [10] = second compound 0.1 µM, first compound 1 µM
# [11] = second compound 0.1 µM, first compound 3.16 µM
# [12] = second compound 0.1 µM, first compound 10 µM
# [13] = second compound 0.316 µM, first compound 0.0316 µM
# [14] = second compound 0.316 µM, first compound 0.1 µM
# [15] = second compound 0.316 µM, first compound 0.316 µM
# [16] = second compound 0.316 µM, first compound 1 µM
# [17] = second compound 0.316 µM, first compound 3.16 µM
# [18] = second compound 0.316 µM, first compound 10 µM
# [19] = second compound 1 µM, first compound 0.0316 µM
# [20] = second compound 1 µM, first compound 0.1 µM
# [21] = second compound 1 µM, first compound 0.316 µM
# [22] = second compound 1 µM, first compound 1 µM
# [23] = second compound 1 µM, first compound 3.16 µM
# [24] = second compound 1 µM, first compound 10 µM
# [25] = second compound 3.16 µM, first compound 0.0316 µM
# [26] = second compound 3.16 µM, first compound 0.1 µM
# [27] = second compound 3.16 µM, first compound 0.316 µM
# [28] = second compound 3.16 µM, first compound 1 µM
# [29] = second compound 3.16 µM, first compound 3.16 µM
# [30] = second compound 3.16 µM, first compound 10 µM
# [31] = second compound 10 µM, first compound 0.0316 µM
# [32] = second compound 10 µM, first compound 0.1 µM
# [33] = second compound 10 µM, first compound 0.316 µM
# [34] = second compound 10 µM, first compound 1 µM
# [35] = second compound 10 µM, first compound 3.16 µM
# [36] = second compound 10 µM, first compound 10 µM
# 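Also: spheroids exposed to drugs for seven days before readout.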
# 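For viability, T/C in this document: percent viability relative to DMSO vehicle control taken as 100%.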
smiles,measurement,setting,value
CC1COCCN1c1cc(-c2ccnn2C)c2ccnc(-c3ccn[nH]3)c2n1 (stereo not drawn) + COC1C(OC(N)=O)C(O)C(Oc2ccc3c(O)c(NC(=O)c4ccc(O)c(CC=C(C)C)c4)c(=O)oc3c2C)OC1(C)C,pIC50,second compound 0.0316 µM,7.11
same,pIC50,second compound 0.1 µM,7.09
same,pIC50,second compound 0.316 µM,6.98
same,pIC50,second compound 1 µM,7.13
same,pIC50,second compound 3.16 µM,6.95
same,pIC50,second compound 10 µM,7.08
same,"viability, T/C",[1],75.7%
same,"viability, T/C",[2],42.4%
same,"viability, T/C",[3],10.5%
same,"viability, T/C",[4],9.05%
same,"viability, T/C",[5],8.71%
same,"viability, T/C",[6],5.49%
same,"viability, T/C",[7],85.5%
same,"viability, T/C",[8],42.1%
same,"viability, T/C",[9],9.78%
same,"viability, T/C",[10],8.09%
same,"viability, T/C",[11],9.06%
same,"viability, T/C",[12],6.55%
same,"viability, T/C",[13],82.7%
same,"viability, T/C",[14],51.4%
same,"viability, T/C",[15],11.2%
same,"viability, T/C",[16],7.55%
same,"viability, T/C",[17],8.92%
same,"viability, T/C",[18],7.56%
same,"viability, T/C",[19],83.3%
same,"viability, T/C",[20],38.1%
same,"viability, T/C",[21],9.64%
same,"viability, T/C",[22],8.17%
same,"viability, T/C",[23],9.6%
same,"viability, T/C",[24],5.36%
same,"viability, T/C",[25],64.1%
same,"viability, T/C",[26],54%
same,"viability, T/C",[27],11.1%
same,"viability, T/C",[28],7.3%
same,"viability, T/C",[29],8.49%
same,"viability, T/C",[30],6.71%
same,"viability, T/C",[31],86.9%
same,"viability, T/C",[32],42.7%
same,"viability, T/C",[33],10.4%
same,"viability, T/C",[34],7.51%
same,"viability, T/C",[35],9.13%
same,"viability, T/C",[36],5.64%
CC1COCCN1c1cc(C2(S(C)(=N)=O)CC2)nc(-c2ccnc3[nH]ccc23)n1 (stereo not drawn) + Nc1ccc(C#CCN(C(=O)Cc2ncc(C(F)(F)F)cc2C(F)(F)F)c2ccc(F)cc2)nn1,pIC50,second compound 0.0316 µM,5.56
same,pIC50,second compound 0.1 µM,5.51
same,pIC50,second compound 0.316 µM,5.57
same,pIC50,second compound 1 µM,5.52
same,pIC50,second compound 3.16 µM,5.60
same,pIC50,second compound 10 µM,5.58
same,"viability, T/C",[1],89.8%
same,"viability, T/C",[2],90.3%
same,"viability, T/C",[3],86.5%
same,"viability, T/C",[4],89.9%
same,"viability, T/C",[5],44.8%
same,"viability, T/C",[6],9.42%
same,"viability, T/C",[7],89.2%
same,"viability, T/C",[8],89.6%
same,"viability, T/C",[9],87.9%
same,"viability, T/C",[10],83.5%
same,"viability, T/C",[11],49.1%
same,"viability, T/C",[12],9.47%
same,"viability, T/C",[13],89.8%
same,"viability, T/C",[14],97.5%
same,"viability, T/C",[15],87.1%
same,"viability, T/C",[16],84.4%
same,"viability, T/C",[17],44%
same,"viability, T/C",[18],10.4%
same,"viability, T/C",[19],97.9%
same,"viability, T/C",[20],101%
same,"viability, T/C",[21],87.9%
same,"viability, T/C",[22],85.3%
same,"viability, T/C",[23],48.1%
same,"viability, T/C",[24],10.3%
same,"viability, T/C",[25],93.5%
same,"viability, T/C",[26],85.6%
same,"viability, T/C",[27],78.5%
same,"viability, T/C",[28],89.3%
same,"viability, T/C",[29],41.3%
same,"viability, T/C",[30],11.1%
same,"viability, T/C",[31],95.7%
same,"viability, T/C",[32],85.3%
same,"viability, T/C",[33],90.9%
same,"viability, T/C",[34],86.4%
same,"viability, T/C",[35],43.2%
same,"viability, T/C",[36],9.54%
Nc1ccn(C2OC(CO)C(O)C2(F)F)c(=O)n1 (stereo not drawn) + COC1C(OC(N)=O)C(O)C(Oc2ccc3c(O)c(NC(=O)c4ccc(O)c(CC=C(C)C)c4)c(=O)oc3c2C)OC1(C)C,pIC50,second compound 0.0316 µM,> 7.50
same,pIC50,second compound 0.1 µM,> 7.50
same,pIC50,second compound 0.316 µM,> 7.50
same,pIC50,second compound 1 µM,> 7.50
same,pIC50,second compound 3.16 µM,> 7.50
same,pIC50,second compound 10 µM,> 7.50
same,"viability, T/C",[1],14.1%
same,"viability, T/C",[2],7.21%
same,"viability, T/C",[3],8.07%
same,"viability, T/C",[4],10.4%
same,"viability, T/C",[5],7.9%
same,"viability, T/C",[6],5.28%
same,"viability, T/C",[7],13.9%
same,"viability, T/C",[8],7.13%
same,"viability, T/C",[9],9.39%
same,"viability, T/C",[10],8.07%
same,"viability, T/C",[11],8.46%
same,"viability, T/C",[12],7.04%
same,"viability, T/C",[13],14.2%
same,"viability, T/C",[14],9.44%
same,"viability, T/C",[15],8.7%
same,"viability, T/C",[16],9.16%
same,"viability, T/C",[17],11.3%
same,"viability, T/C",[18],9.38%
same,"viability, T/C",[19],19.4%
same,"viability, T/C",[20],7.26%
same,"viability, T/C",[21],9.54%
same,"viability, T/C",[22],8.14%
same,"viability, T/C",[23],9.07%
same,"viability, T/C",[24],7.06%
same,"viability, T/C",[25],16.1%
same,"viability, T/C",[26],7.44%
same,"viability, T/C",[27],8.41%
same,"viability, T/C",[28],9.67%
same,"viability, T/C",[29],7.02%
same,"viability, T/C",[30],6.42%
same,"viability, T/C",[31],17.5%
same,"viability, T/C",[32],5.7%
same,"viability, T/C",[33],9.27%
same,"viability, T/C",[34],8.67%
same,"viability, T/C",[35],8.15%
same,"viability, T/C",[36],8.46%
COc1ccc([C@@H](O)c2cc(-c3ncnc4cc(N5CCOCC5)ccc34)c(F)cc2Cl)nn1 + Cc1cccc(N(C)C(=O)C2C(O)CCN2c2nc(C)cc(C(F)(F)F)c2C#N)c1,pIC50,second compound 0.0316 µM,5.20
same,pIC50,second compound 0.1 µM,5.23
same,pIC50,second compound 0.316 µM,5.15
same,pIC50,second compound 1 µM,5.17
same,pIC50,second compound 3.16 µM,5.17
same,pIC50,second compound 10 µM,5.21
same,"viability, T/C",[1],81.3%
same,"viability, T/C",[2],83.6%
same,"viability, T/C",[3],94.3%
same,"viability, T/C",[4],96.3%
same,"viability, T/C",[5],75%
same,"viability, T/C",[6],33.5%
same,"viability, T/C",[7],87%
same,"viability, T/C",[8],89.6%
same,"viability, T/C",[9],92%
same,"viability, T/C",[10],87.1%
same,"viability, T/C",[11],64.1%
same,"viability, T/C",[12],37.9%
same,"viability, T/C",[13],81.5%
same,"viability, T/C",[14],82.1%
same,"viability, T/C",[15],101%
same,"viability, T/C",[16],82.4%
same,"viability, T/C",[17],73%
same,"viability, T/C",[18],39.8%
same,"viability, T/C",[19],97.2%
same,"viability, T/C",[20],85.4%
same,"viability, T/C",[21],92%
same,"viability, T/C",[22],81.8%
same,"viability, T/C",[23],83.8%
same,"viability, T/C",[24],33.4%
same,"viability, T/C",[25],87.3%
same,"viability, T/C",[26],85.5%
same,"viability, T/C",[27],96.7%
same,"viability, T/C",[28],74.8%
same,"viability, T/C",[29],81.6%
same,"viability, T/C",[30],35%
same,"viability, T/C",[31],74.8%
same,"viability, T/C",[32],78.5%
same,"viability, T/C",[33],85.2%
same,"viability, T/C",[34],80%
same,"viability, T/C",[35],82.2%
same,"viability, T/C",[36],28.4%
